Laboratory results published in patent US20260191962A1, “NOVEL CHLORIN E6 ANALOGUES” (RMW CHO Group Limited, priority 2022, published 2026).
Structures can show the parent of a compound that is named as a salt. Where two headings read alike, the source gives them in different places.

Tests used:
[1] = tested on: SKOV3 ovarian cancer cells; experiment: Inherent cytotoxicity (dark toxicity) in SKOV3 cells (AlamarBlue viability); settings: 24 h incubation, no light activation
[2] = tested on: SKOV3 ovarian cancer cells; experiment: Phototoxicity of chlorin e6 analogues in SKOV3 cells after 652 nm laser activation (AlamarBlue viability); assay type: cell-based, Human; settings: for IC90: 24 h uptake, 652 nm laser 50 mW/cm^2 for 5 mins (15 J/cm^2), viability 24 h later; for Phototoxicity in vitro compared with compounds 1, 2 and 8: comparison in words
Method: Samples were stored at 4° C. protected from light.
All data are shown as mean±SD (where appropriate).
To test for phototoxicity, cells incubated with chlorin e6 analogues (0-10 μM in DMSO) had culture media replaced after 24 hours (as above) and were then exposed to a 652 nm laser (Invion) with laser density at 50 mW/cm^2 for 5 mins (total 15 J/cm^2). Following activation, cells were cultured for a further 24 hours. Media was then replaced with fresh media containing AlamarBlue, and % viable cells remaining assessed as above. Controls included cells treated with chlorin e6 analogues but not activated by laser light; cells without chlorin e6 analogue treatment but with laser light; and untreated controls. All measurements were made in quadruplicate.
To evaluate the therapeutic potential of chlorin e6 analogues, the therapeutic index (TI) was calculated. TI provides a quantitative measurement to describe relative drug safety, by comparing the drug concentration required for desirable effects versus the concentration resulting in undesirable off-target toxicity. TI was calculated using phototoxicity IC90 vs dark toxicity IC10.

[3] = tested on: SKOV3 ovarian cancer cells; settings: human, 24 h
Method: Photosensitizers (e.g. chlorin e6 analogue, chlorin e4 disodium (provided by Advanced Molecular Technologies, Scoresby) or Talaporfin sodium (purchased from Focus Bioscience cat #HY-16477-5MG)) were resuspended in 100% dimethylsulfoxide (DMSO) at a concentration of 5.5 mM. Samples were stored at 4° C. protected from light.
For in vitro experiments, photosensitizers (stock solution 5.5 mM in 100% DMSO) were diluted 1:100 in concentrated excipient solution (final 55 M photosensitizer in 10% w/v Kollidon-12, 42.4% w/v polysorbate 80, 0.6% w/v citric acid anhydrous, 40% w/v ethanol, 1.0% DMSO). Serial dilutions were prepared in cell culture media (Dulbecco's Modified Eagle Medium/Nutrient Mixture F-12 (DMEM/F-12)) supplemented with 10% v/v Fetal Bovine Serum, 100 U/mL penicillin, 100 μg/mL streptomycin and the same excipient solution at a constant 1:55 dilution.
Human ovarian cancer cell line SKOV3 (ATCC #HTB-77) was maintained in Dulbecco's Modified Eagle Medium/Nutrient Mixture F-12 (DMEM/F-12), supplemented with 10% v/v Fetal Bovine Serum, 100 U/mL penicillin and 100 g/mL streptomycin. Monolayer cultures were grown in a humidified incubator at 37° C. with 5% CO2. Once cells had reached ~80% confluence, spent media was replaced with media containing photosensitizer at the required concentration and cells were incubated for the desired period of time to allow photosensitizer uptake.
Spectral absorbance and viability measurements were normalized in the range 0-100%, with a minimum of 0 and a maximum value determined from the dataset. Dose response was determined using a sigmoidal four-point non-linear regression with variable slope, and IC10 or IC90 calculated for each compound. All data are shown as mean±SD (where appropriate).
SKOV3 cells were seeded in 96-well black wall plates (Greiner #655090) at a cell density of 5000 cells in 100 μl culture medium per well. On reaching 60% confluence, media was aspirated and replaced with fresh media containing the relevant chlorin e6 analogue from 0-100 μM in DMSO. Cells were incubated for a further 24 hours, allowing uptake of chlorin e6 analogues.
To test for inherent cytotoxicity (i.e. “dark toxicity”) of the chlorin e6 analogues, the culture media was replaced after 24 hours with fresh media containing 10% (v/v) AlamarBlue Cell Viability Reagent (ThermoFisher) and cells incubated at 37° C. for 6 hours. Untreated cells were used as a control. Fluorescence (Ex 555 nm/Em 596 nm) was measured using a Cytation 3 Cell Imaging Multi-Mode Reader (Biotek), and cytotoxicity assessed according to the % viable cells remaining. All measurements were made in quadruplicate.
The phototoxicity and inherent cytotoxicity (i.e. “dark toxicity”) of chlorin e6 analogues were assessed as previously using SKOV3 ovarian cancer cells.

[4] = Stability of chlorin e6 analogue salts in aqueous solution (HPLC purity over time); assay type: physicochemical; settings: 30° C.; for Stability: aqueous solution, overall rating in words
Method: Reaction solutions were prepared by dissolving 2-3 mg of the respective chlorin e6 analogue salt in 5 mL of distilled deionised water in a 50 mL test tube fitted with a lid. The solutions were stirred in the test tubes at 30° C. Air (oxygen) and ambient light so were not excluded. Sample HPLC analyses were performed at 0.5, 4 or 66 hours (unless indicated otherwise). The aim was to look for degradation over time.
• Mobile Phase: A=0.05% w/v phosphoric acid in distilled water; B=acetonitrile • Injection volume: 5 μL • HPLC run length: 35 minutes • Detection wavelength: 406 nm • Column temperature: 40° C.

[5] = Homo sapiens, SK-OV-3, light or radiation study
[6] = distilled deionised water, air and ambient light not excluded
[7] = distilled deionised water, air and ambient light not excluded, Disodium Salt

Row | Compound | Stability [4] | Purity by HPLC after 0.5 hours (%) [4, 6] [%] | Purity by HPLC after 4 hours (%) [4, 6] [%] | Purity by HPLC after 66 hours (%) [4, 6] [%] | other results
1 | C=Cc1c(C)c2cc3nc(c(C)c4[nH]c(cc5nc(cc1[nH]2)C(C)=C5CC)c(C)c4C(=O)O)[C@@H](CCC(=O)O)[C@@H]3C [Chlorin e4 disodium, reference compound] |  |  |  |  | Dark toxicity μM (IC10) [1]: 40.23 µM; IC90 [2]: 21.3 µM; Phototoxicity in vitro compared with compounds 1, 2 and 8 [2]: substantially lower phototoxicity
2 | C=Cc1c(C)c2cc3nc(c(CC(=O)O)c4[nH]c(cc5nc(cc1[nH]2)C(C)=C5CC)c(C)c4C(=O)NCCCS[C@@H]1O[C@H](CO)[C@@H](O)[C@H](O)[C@H]1O)[C@@H](CCC(=O)NCCCS[C@@H]1O[C@H](CO)[C@@H](O)[C@H](O)[C@H]1O)[C@@H]3C [Compound 1, chlorin e6 bis β-D-1-thioglucose propylamide conjugate 1] |  |  |  |  | IC90 [2, 5]: 6.48 µM; Dark toxicity μM (IC10) [3]: 168.10 µM
3 | C=Cc1c(C)c2cc3nc(c(CC(=O)NCCCS[C@@H]4O[C@H](CO)[C@@H](O)[C@H](O)[C@H]4O)c4[nH]c(cc5nc(cc1[nH]2)C(C)=C5CC)c(C)c4C(=O)NCCCS[C@@H]1O[C@H](CO)[C@@H](O)[C@H](O)[C@H]1O)[C@@H](CCC(=O)NCCCS[C@@H]1O[C@H](CO)[C@@H](O)[C@H](O)[C@H]1O)[C@@H]3C [Compound 2, chlorin e6 tris β-D-1-thioglucose propylamide conjugate 2] |  |  |  |  | IC90 [2, 5]: 7.89 µM; Dark toxicity μM (IC10) [3]: 167.50 µM
4 | C=Cc1c(C)c2cc3nc(c(CC(=O)N(C)CCC[P+](c4ccccc4)(c4ccccc4)c4ccccc4)c4[nH]c(cc5nc(cc1[nH]2)C(C)=C5CC)c(C)c4C(=O)OC)[C@@H](CCC(=O)OC)[C@@H]3C [Compound 8, Chlorin e6 N-(methylaminopropyl)triphenylphosphonium Bromide Dimethyl Ester] |  |  |  |  | IC90 [2, 5]: 0.00418 µM; Dark toxicity μM (IC10) [3]: 1.032 µM
5 | C=Cc1c(C)c2cc3nc(c(CC(=O)N(C)CCCC)c4[nH]c(cc5nc(cc1[nH]2)C(C)=C5CC)c(C)c4C(=O)O)[C@@H](CCC(=O)O)[C@@H]3C [Compound 11, Chlorin e6 N-methylbutylamine bis(N-methyl-D-glucamine) Salt] | Good | 94.15 | 93.94 |  | Purity by HPLC (%) after 7 days ([4]; distilled deionised water, air and ambient light not excluded, after 7 days): 93.93 (after %
6 | C=Cc1c(C)c2cc3nc(c(CC(=O)O)c4[nH]c(cc5nc(cc1[nH]2)C(C)=C5CC)c(C)c4C(=O)OC)[C@@H](CCC(=O)O)[C@@H]3C [Compound 12, Chlorin e6 5-methyl Ester Monosodium Mono(N-methyl-D-glucamine) Salt] | Poor | 83.73 | 81.10 | 36.95 | 
7 | C=Cc1c(C)c2cc3nc(c(CC(=O)O)c4[nH]c(cc5nc(cc1[nH]2)C(C)=C5CC)c(C)c4C(=O)OC)[C@@H](CCC(=O)O)[C@@H]3C [Compound 13, Chlorin e6 5-methyl Ester Disodium Salt] | Poor |  |  |  | Purity by HPLC after 0.5 hours (%) [4, 7]: 85.46%; Purity by HPLC after 4 hours (%) [4, 7]: 81.54%; Purity by HPLC after 66 hours (%) [4, 7]: 41.60%
8 | C=Cc1c(C)c2cc3nc(c(CC(=O)OCC)c4[nH]c(cc5nc(cc1[nH]2)C(C)=C5CC)c(C)c4C(=O)O)[C@@H](CCC(=O)O)[C@@H]3C [Compound 16, Chlorin e6 15-ethyl Ester bis(N-methyl-D-glucamine) Salt] | Good |  |  | 95.34 | 
9 | C=Cc1c(C)c2cc3nc(c(CC(=O)OCC)c4[nH]c(cc5nc(cc1[nH]2)C(C)=C5CC)c(C)c4C(=O)O)[C@@H](CCC(=O)O)[C@@H]3C [Compound 17, Chlorin e6 15-ethyl Ester Disodium Salt] |  |  |  |  | Purity by HPLC after 66 hours (%) [4, 7]: 76.69%; Purity by HPLC (%) after 2 hours ([4]; distilled deionised water, air and ambient light not excluded, after 2 hours): 77.60 (after %
10 | C=Cc1c(C)c2cc3nc(c(CC(=O)O)c4[nH]c(cc5nc(cc1[nH]2)C(C)=C5CC)c(C)c4C(=O)OC)[C@@H](CCC(=O)O)[C@@H]3C [Compound 20, Chlorin e6 5-methyl Ester bis(N-methyl-D-glucamine) Salt] | Poor | 81.39 | 81.28 | 1.62 | 
11 | C=Cc1c(C)c2cc3nc(c(CC(=O)O)c4[nH]c(cc5nc(cc1[nH]2)C(C)=C5CC)c(C)c4C(=O)O)[C@@H](CCC(=O)O)[C@@H]3C [Photodithiazine, reference compound] | Poor | 88.56 | 84.33 | 40.27 | 
12 | C=Cc1c(C)c2cc3nc(c(CC(=O)N[C@@H](CC(=O)O)C(=O)O)c4[nH]c(cc5nc(cc1[nH]2)C(C)=C5CC)c(C)c4C(=O)O)[C@@H](CCC(=O)O)[C@@H]3C [Talaporfin sodium, reference compound] |  |  |  |  | Dark toxicity μM (IC10) [1]: 11.10 µM; Phototoxicity in vitro compared with compounds 1, 2 and 8 [2]: substantially lower phototoxicity
